Laboratory results from ChEMBL document CHEMBL1201862, “PubChem BioAssay data set” (2004).
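Assay format: 96-well plates, 48-hour exposure. GI50: concentration for 50% inhibition of growth.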 Active and inactive are the calls of the source. Rule as the data show it: active = GI50 up to about 1.1 µM and inactive = higher.

Key:
Assay in all cases: NCI-60 cell line screen, 48 h
CCRF-CEM = test system: CCRF-CEM
HCC 2998 = test system: HCC 2998
HOP-62 = test system: HOP-62
K562 = test system: K562
KM-20L2 = test system: KM-20L2
KM12 = test system: KM12
M14 = test system: M14
NCI-H226 = test system: NCI-H226
NCI-H522 = test system: NCI-H522
OVCAR-4 = test system: OVCAR-4
SK-OV-3 = test system: SK-OV-3
SNB-19 = test system: SNB-19
SW-620 = test system: SW-620
UACC-257 = test system: UACC-257
ACHN = test system: ACHN
HL-60 = test system: HL-60
A498 = test system: A498
Hs-578T = test system: Hs-578T
MDA-MB-435 = test system: MDA-MB-435
T47D = test system: T47D

Measured: GI50

CC1(C)CC(/C=C2/OC(=O)c3ccccc32)=C(C(N)=O)C(=O)O1
inactive: CCRF-CEM > 100 µM | HCC 2998 > 100 µM | HOP-62 > 100 µM | K562 > 100 µM | KM-20L2 > 100 µM | KM12 > 100 µM | M14 > 100 µM | NCI-H226 > 100 µM | NCI-H522 > 100 µM | OVCAR-4 72.1 µM | SK-OV-3 > 100 µM | SNB-19 > 100 µM | SW-620 > 100 µM | UACC-257 > 100 µM

Nc1ncnc2c1ncn2C1OC(CSCC(F)(F)F)C(O)C1O (configuration not stated)
inactive: ACHN > 100 µM | HCC 2998 > 100 µM | HL-60 > 100 µM | HOP-62 > 100 µM | K562 > 100 µM | KM-20L2 > 100 µM | KM12 > 100 µM | M14 > 100 µM | NCI-H226 > 100 µM | NCI-H522 45 µM | OVCAR-4 > 100 µM | SK-OV-3 > 100 µM | SNB-19 > 100 µM | SW-620 > 100 µM | UACC-257 > 100 µM

OCCc1cnco1
inactive: CCRF-CEM > 100 µM | HCC 2998 > 100 µM | HL-60 > 100 µM | HOP-62 > 100 µM | K562 > 100 µM | KM-20L2 > 100 µM | KM12 > 100 µM | M14 > 100 µM | NCI-H226 > 100 µM | NCI-H522 > 100 µM | OVCAR-4 > 100 µM | SK-OV-3 > 100 µM | SNB-19 > 100 µM | SW-620 > 100 µM

COc1ccc(N2C(=O)[C@@H](N=[N+]=[N-])[C@@H]2[C@H]2COC(C)(C)O2)cc1
inactive: ACHN > 100 µM | CCRF-CEM > 100 µM | HCC 2998 > 100 µM | HL-60 > 100 µM | HOP-62 > 100 µM | K562 > 100 µM | KM-20L2 > 100 µM | KM12 > 100 µM | M14 > 100 µM | NCI-H226 > 100 µM | NCI-H522 > 100 µM | OVCAR-4 > 100 µM | SK-OV-3 > 100 µM | SNB-19 > 100 µM | SW-620 > 100 µM | UACC-257 > 100 µM

N#CC(C(=O)CCCC(=O)Nc1ccc(Cl)cc1Cl)c1ccc(Cl)cc1 (configuration not stated)
inactive: ACHN > 100 µM | HCC 2998 > 100 µM | HL-60 > 100 µM | HOP-62 > 100 µM | K562 > 100 µM | KM-20L2 > 100 µM | KM12 > 100 µM | M14 > 100 µM | NCI-H226 > 100 µM | NCI-H522 > 100 µM | OVCAR-4 > 100 µM | SK-OV-3 > 100 µM | SNB-19 > 100 µM | SW-620 > 100 µM | UACC-257 > 100 µM

COc1ccc2nc3ccc(OC)cc3c(SCc3ccccc3)c2c1
inactive: A498 > 100 µM | ACHN 97.9 µM | CCRF-CEM > 52.7 µM | HCC 2998 38.8 µM | HL-60 > 100 µM | HOP-62 > 100 µM | Hs-578T > 100 µM | K562 > 63.2 µM | KM12 > 100 µM | M14 > 33.1 µM | MDA-MB-435 > 76.9 µM | NCI-H226 > 100 µM | NCI-H522 > 84.9 µM | OVCAR-4 > 100 µM | SK-OV-3 > 100 µM | SNB-19 > 100 µM | SW-620 > 74.3 µM | T47D > 100 µM | UACC-257 > 92.5 µM

[N-]=[N+]=NC(CBr)c1cn([C@H]2C[C@H](O)[C@@H](CO)O2)c(=O)[nH]c1=O (some centres not stated)
inactive: ACHN > 100 µM | CCRF-CEM > 100 µM | HCC 2998 > 100 µM | HL-60 > 100 µM | HOP-62 > 100 µM | K562 > 100 µM | KM-20L2 > 100 µM | KM12 > 100 µM | M14 > 100 µM | NCI-H226 > 100 µM | NCI-H522 > 100 µM | SK-OV-3 > 100 µM | SNB-19 > 100 µM | SW-620 > 100 µM

O=C(O)C1C(C(=O)Nc2ccc3c(c2)Cc2ccccc2-3)C2(Cl)C(Cl)=C(Cl)C1(Cl)C2(Cl)Cl (configuration not stated)
inactive: A498 19.4 µM | ACHN 30.3 µM | CCRF-CEM 18.7 µM | HCC 2998 20.6 µM | HL-60 26.6 µM | HOP-62 31.2 µM | Hs-578T 19.9 µM | K562 2.6 µM | KM12 18.7 µM | M14 20.4 µM | MDA-MB-435 29.1 µM | NCI-H226 29 µM | NCI-H522 18.6 µM | OVCAR-4 27.7 µM | SK-OV-3 45.5 µM | SNB-19 36 µM | SW-620 25.6 µM | T47D 32.1 µM | UACC-257 20.6 µM

O=C(c1cc(Cl)cc(Cl)c1)N(C(=O)N1CCN(c2ccccc2)CC1)c1ccccc1
inactive: A498 21.2 µM | ACHN 72.9 µM | CCRF-CEM 22.5 µM | HCC 2998 51.9 µM | HL-60 17.2 µM | HOP-62 87.1 µM | Hs-578T 56.1 µM | K562 10.5 µM | KM12 23.5 µM | M14 27.6 µM | MDA-MB-435 11.1 µM | NCI-H226 22.8 µM | NCI-H522 16.4 µM | OVCAR-4 23 µM | SK-OV-3 96.6 µM | SNB-19 53.3 µM | SW-620 30.3 µM | T47D 18.1 µM | UACC-257 28.9 µM

N#CC1(O)CCCCCCCCCCC1
inactive: A498 > 100 µM | ACHN > 100 µM | CCRF-CEM > 100 µM | HCC 2998 > 100 µM | HL-60 > 100 µM | HOP-62 > 100 µM | Hs-578T > 100 µM | K562 > 100 µM | KM12 > 100 µM | M14 > 100 µM | MDA-MB-435 > 100 µM | NCI-H226 > 100 µM | NCI-H522 48.8 µM | OVCAR-4 > 100 µM | SK-OV-3 > 100 µM | SNB-19 > 100 µM | SW-620 > 100 µM | T47D > 100 µM | UACC-257 > 100 µM

O=C(O)c1ccccc1CC(Cc1ccc2c(c1)CCC2)C(=O)O (configuration not stated)
inactive: A498 > 100 µM | ACHN > 100 µM | CCRF-CEM > 100 µM | HCC 2998 > 100 µM | HL-60 > 100 µM | HOP-62 > 100 µM | Hs-578T > 100 µM | K562 > 100 µM | KM12 > 100 µM | M14 > 100 µM | MDA-MB-435 > 100 µM | NCI-H226 > 100 µM | NCI-H522 > 100 µM | OVCAR-4 > 100 µM | SK-OV-3 > 100 µM | SNB-19 > 100 µM | SW-620 > 100 µM | T47D > 100 µM | UACC-257 > 100 µM

CCOC(=O)CCC(NC(=O)Cc1ccc(Nc2nc3ccccc3nc2-c2ccccc2)cc1)C(=O)OCC (configuration not stated)
inactive: A498 37 µM | ACHN 41.5 µM | CCRF-CEM > 100 µM | HCC 2998 > 100 µM | HL-60 > 100 µM | HOP-62 6.46 µM | Hs-578T 10.2 µM | K562 > 100 µM | KM12 > 100 µM | M14 65.6 µM | MDA-MB-435 > 100 µM | NCI-H226 72.1 µM | NCI-H522 20.7 µM | OVCAR-4 6.79 µM | SK-OV-3 22.4 µM | SNB-19 24.2 µM | SW-620 > 100 µM | T47D > 100 µM | UACC-257 > 100 µM
